Assay results reported in US20070113300A1 (priority 2003, published 2007).

The molecules below were run against ClpP Enzyme. Details: pH 8.
Assay type: biochemical

SMILES	IC50
O=[N+]([O-])C(=C1Nc2ccccc2N1)C(Cl)=C(Cl)Cl [(I)]	23 µM
Clc1nc2ccccc2nc1N1CC1 [(II)]	19 µM
COc1ccc(/C=C(\C#N)c2nnc(/N=C/N(C)C)s2)cc1 [(III)]	25 µM
